The text below walks through data of patent publication US10590143B2, “Herbicidally active (alkynyl-phenyl)-substituted cyclic dione compounds and derivatives thereof” (Syngenta Limited, priority 2013, dated 2020).

What all share (test): Biological Example 2 glasshouse assay for herbicidal activity
Common to all, as to format: in vivo

Experiment [1] deals with Beta vulgaris (BEAVA, sugarbeet). The settings on record: post-emergence, 360 h, 14 or 15 DAA, 0.2% v/v X-77, read-out: percentage phytotoxicity BEAVA. A digest of the protocol: (§1)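 Visual % phytotoxicity (100% = total damage, 0% = none), scored 14 or 15 DAA post-emergence or 20 DAA pre-emergence. The spray was the IF50 emulsifiable formulation in aqueous 0.2% v/v X-77 at rate-dependent concentration. Glasshouse: 24/18 °C day/night for warm-season BRAPL, 20/16 °C for cool-season wheat, ALOMY and sugarbeet.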

The subject of experiment [2] is Glycine max (GLXMA, soybean). The settings on record: post-emergence, 360 h, 14 or 15 DAA, 0.2% v/v X-77, read-out: percentage phytotoxicity GLXMA. In a few lines:
(§2)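 Glasshouse pots sprayed pre-emergence (1 day after sowing) or post-emergence (~12 days) with active ingredient formulated as IF50 in water plus 0.2% v/v X-77; warm species 24/18 °C, cool species 20/16 °C, 16 h light, 65% humidity. Visual % phytotoxicity scored 14–15 DAA (post) or 20 DAA (pre).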

Experiment [3] deals with Lolium perenne (LOLPE). The settings on record: Lolium perenne, post-emergence, 360 h, 14 or 15 DAA, 0.2% v/v X-77, read-out: percentage phytotoxicity LOLPE. In a few lines: as §2
In experiment [4] the test system is Zea mays (ZEAMX, corn, maize, e.g. volunteer corn). The following applies: Zea mays, post-emergence, 360 h, 14 or 15 DAA, 0.2% v/v X-77, read-out: percentage phytotoxicity ZEAMX. In a few lines: as §2
For experiment [5], the system named is Digitaria sanguinalis (DIGSA). The settings on record: post-emergence, 360 h, 14 or 15 DAA, 0.2% v/v X-77, read-out: percentage phytotoxicity DIGSA. A digest of the protocol: as §2
In experiment [6] the test system is Echinochloa crus-galli (ECHCG). The following applies: Echinochloa crus-galli, post-emergence, 360 h, 14 or 15 DAA, 0.2% v/v X-77, read-out: percentage phytotoxicity ECHCG. In a few lines:
as §2

The subject of experiment [7] is Alopecurus myosuroides (ALOMY). The settings on record: post-emergence, 360 h, 14 or 15 DAA, 0.2% v/v X-77, read-out: percentage phytotoxicity ALOMY. In a few lines:
as §1

Experiment [8] relates to Brachiaria plantaginea (BRAPL). The following applies: Urochloa plantaginea, post-emergence, 360 h, 14 or 15 DAA, 0.2% v/v X-77, read-out: percentage phytotoxicity BRAPL. A digest of the protocol: as §1
Experiment [9] deals with SORVU (Sorghum bicolor (L.) Moench ssp. Bicolor, or Sorghum vulgare Pers.). The following applies: post-emergence, 360 h, 14 or 15 DAA, 0.2% v/v X-77, read-out: percentage phytotoxicity SORVU. A digest of the protocol: as §2
Experiment [10] relates to Brassica napus (BRSNN, rape). The settings on record: Brassica napus, 360 h, post-emergence, 14 or 15 DAA, 0.2% v/v X-77, read-out: percentage phytotoxicity BRSNN. A digest of the protocol:
as §2

As for `CC#Cc1cc(F)c(C2=C(OC(=O)c3ccccc3)C3CCC(C3)C2=O)c(OC)c1` (stereo not shown) [Compound P5, [3-(2-fluoro-6-methoxy-4-prop-1-ynyl-phenyl)-4-oxo-2-bicyclo[3.2.1]oct-2-enyl]benzoate], the plant injury at 30 g/ha is 0% in [1], 0% in experiment [2] and 50% in experiment [10]. In addition, the values for the plant injury at 250 g/ha in [1], in experiment [2] and in [10] were 0%, 0% and 80%, respectively. Besides, the pest or weed control at 30 g/ha stood at 80% in experiment [3]; 90% in experiment [4]; 100% in experiment [5]; 100% in experiment [6]; 70% in experiment [7]; 90% in experiment [8]. For the same compound, the pest or weed control at 30 g/ha in experiment [9] amounted to 80%. Moreover, the pest or weed control at 250 g/ha is 100% in [3]; 100% in experiment [4]; 100% in [5]; 100% in [6]; 90% in experiment [7]; 100% in [8]. Moreover, the pest or weed control at 250 g/ha in experiment [9] came out at 100%.

On to `CC#Cc1cc(F)c(C2=C(OC(=O)SCC)C3CCC(C3)C2=O)c(OC)c1` (stereo not shown) [Compound P4], for which the plant injury at 30 g/ha was 0% in [1], 10% in experiment [2] and 50% in experiment [10]. The plant injury at 250 g/ha in [1] was determined as 0%; in experiment [2], 20%; in experiment [10], 80%. For the same compound, the pest or weed control at 30 g/ha came out at 90% in experiment [3]; 100% in experiment [4]; 80% in experiment [5]; 90% in experiment [6]; 80% in experiment [7]; 100% in [8]. Moreover, the pest or weed control at 30 g/ha in experiment [9] stood at 100%. Also, the pest or weed control at 250 g/ha in experiment [3], in experiment [4], in [5], in experiment [6], in experiment [7] and in [8] was 100% each time. Also, the pest or weed control at 250 g/ha in experiment [9] amounted to 100%.
